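Five compound concentrations were applied to cells in 96-well plates for 48 hours; endpoints were derived by simple linear interpolation of the resulting dose-response curve. GI50 = concentration required for 50% inhibition of growth.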 Active and inactive are the calls of the source. No stated cut-off is given here; in the data, active = GI50 up to about 1.1 µM and inactive = higher.
How the values were obtained:
Test in all cases: DTP human tumour cell line panel, 48 h
[1] = system: COLO 205
[2] = system: SNB-75
[3] = system: IGROV-1
[4] = system: SNB-19
[5] = system: SK-MEL-5
[6] = system: KM12
[7] = system: SF-539
[8] = system: HL-60
[9] = system: RXF 393
[10] = system: Malme-3M
[11] = system: NCI/ADR-RES
[12] = system: MDA-MB-435
[13] = system: SF-295
[14] = system: DU-145
[15] = system: HOP-62
[16] = system: RPMI-8226
[17] = system: U-251
[18] = system: OVCAR-4
[19] = system: TK-10
[20] = system: SR

Measured: GI50

CC1(C)COC(c2ccc(C(=O)c3ccc(Cl)cc3)cc2)=N1
inactive: [1] > 100 µM | [2] > 100 µM | [3] > 100 µM | [4] > 100 µM | [5] 7.23 µM | [6] > 100 µM | [7] > 100 µM | [8] 43.5 µM | [9] 79.6 µM | [10] 42.5 µM | [11] 92.7 µM | [12] 44.5 µM | [13] 65.2 µM | [14] > 100 µM | [15] > 100 µM | [16] > 100 µM | [17] > 100 µM

O=C1C(Cl)=C(N[C@@H](Cc2ccccc2)C(=O)OCc2ccccc2)C(=O)c2c(O)ccc(O)c21
inactive: [1] 2.28 µM | [2] 4.73 µM | [3] 4.08 µM | [4] 5.81 µM | [18] 3.31 µM | [5] 3.24 µM | [6] 4.45 µM | [7] 2.42 µM | [8] 2.07 µM | [9] 4.92 µM | [10] 5.35 µM | [11] 1.88 µM | [12] 3.17 µM | [13] 5.66 µM | [14] 4.45 µM | [19] > 10 µM | [15] 3.52 µM | [16] > 10 µM | [17] 3.01 µM

Cc1cn(CC2=NCCCN2)c(=O)[nH]c1=O
inactive: [1] > 100 µM | [2] > 100 µM | [3] > 100 µM | [4] > 100 µM | [5] > 100 µM | [9] > 100 µM | [10] > 100 µM | [11] > 100 µM | [13] > 100 µM | [14] > 100 µM | [19] > 100 µM | [15] > 100 µM | [16] > 100 µM | [17] > 100 µM | [20] > 100 µM

COc1cc(OC)c(C/C=C/c2ccccc2)cc1O
inactive: [1] 22 µM | [2] 14.6 µM | [3] 16.3 µM | [4] 15.9 µM | [18] 14 µM | [5] 15.8 µM | [6] 17.7 µM | [7] 16.2 µM | [8] 19.3 µM | [10] 16.2 µM | [11] 14.5 µM | [12] 17 µM | [14] 17.1 µM | [19] 16.4 µM | [16] 14.9 µM | [17] 16.7 µM

CC1(C)[C@H]2CC[C@@]13C(=O)N1C(=O)O[C@@H]([C@H]1Cl)C(Cl)(COCc1ccccc1)C(=O)OCCO[C@H]3C2 (stereo partly drawn)
inactive: [1] 18 µM | [2] > 100 µM | [3] > 100 µM | [4] > 100 µM | [18] 40.6 µM | [5] 29.9 µM | [6] 63.7 µM | [7] > 100 µM | [8] 35.2 µM | [10] 60.8 µM | [11] 59.4 µM | [12] 42.8 µM | [13] 51.1 µM | [15] > 100 µM | [16] 28.2 µM | [17] 39.4 µM | [20] 39.7 µM

COc1ccc(OC)c2c1ccc1c(C)c3ccccc3c(C)c12
inactive: [2] > 100 µM | [3] > 100 µM | [4] > 100 µM | [18] 79.4 µM | [8] 57.1 µM | [10] > 100 µM | [12] > 100 µM | [14] > 100 µM | [19] > 100 µM | [15] 86.5 µM | [16] > 100 µM | [17] > 100 µM | [20] 36.6 µM

CC(C)(C)OC(=O)NC1CCCC1C(=O)C1=CCCC1 (stereo not drawn)
inactive: [1] > 100 µM | [2] 72.9 µM | [3] 33.4 µM | [4] > 100 µM | [18] 49.1 µM | [5] 65 µM | [6] 92 µM | [8] > 100 µM | [9] > 100 µM | [11] > 100 µM | [12] 90.6 µM | [14] > 100 µM | [15] > 100 µM | [16] > 100 µM | [17] > 100 µM | [20] 90.8 µM

CC1(C)O[C@@H]2[C@@H](COC(C)(C)O[C@H]2C2SCCCS2)O1
inactive: [1] > 100 µM | [4] > 100 µM | [18] > 100 µM | [5] > 100 µM | [6] > 100 µM | [7] > 100 µM | [9] > 100 µM | [10] > 100 µM | [11] > 100 µM | [12] > 100 µM | [13] > 100 µM | [14] > 100 µM | [15] > 100 µM | [16] > 100 µM | [17] > 100 µM

— ChEMBL document CHEMBL1201862, “PubChem BioAssay data set” (2004)
